The values below come from patent US20040120922A1, “Method for promoting bone formation” (Genzyme Corporation, priority 2002, published 2004).

Type in all cases: in vivo, human
Assay [1] concerns hemodialysis patients. The assay is described as follows: Cardiovascular calcification by Electron Beam Tomography (Agatston score), 52 week study. Particulars: Week 0 to 52. Here is the method:
The study was a 52 week, randomized, open label, multi-center, parallel study designed to assess the effects of sevelamer compared to calcium acetate/carbonate in enabling hemodialysis patients to reach therapeutic goals of phosphorus <5 mg/dL, calcium <10.5 mg/dL and iPTH in the range of 150-300 pg/mL. Patients also underwent Electron Beam Tomography (EBT) scans at Day 0 and Weeks 26 and 52. These scans were used to assess changes in cardiovascular calcification over time. A total of 202 patients who were on hemodialysis and taking one or more phosphate binders were randomized in a 1:1 design to receive either Renagel® or calcium acetate (United States)/carbonate (Europe), stratified by the presence or absence of diabetes.
Approximately 12 months into the Extension study, the analysis of the initial study was completed. […] This difference was statistically significant (p=0.0398). […] This difference was statistically significant (p=0.0104). When analyzed by percent change and weekly change, the results were consistently in favor of the sevelamer group. Complete results are described in the article referenced as Protocol 7 (Chertow, 2002).

In assay [2] the test system is hemodialysis patients. Kind of assay: Biochemical markers after 12 months of treatment (Example 2). To be noted: on average, one treatment group relative to the other. Here is the method:
Following the 12 months of treatment, the levels a number of biochemical markers were assayed in the patient groups. […] The group treated with sevelamer had on average higher iPTH, 1-84 PTH, alkaline phosphatase, bone specific alkaline phosphatase, osteocalcin, and HDL cholesterol. The sevelamer group had lower calcium, 25-hydroxyvitamin D, total cholesterol, LDL cholesterol, apolipoprotein B, […] and total CO2.

Assay [3] concerns hemodialysis patients. The assay is described as follows: Bone density, baseline vs 12 month scan (Example 2). How it is done: […] Specifically, thoracic spine bone density was assessed by computerized tomography densitometry (density expressed as Hounsfield units). Trabecular bone density was measured in the core of the lowest vertebral body completely captured by the scanning procedure, while cortical bone density was measured in the axial plate of the same vertebral body. Care was taken to evaluate exactly the same vertebral level in consecutive scans in the same patient. No significant differences in demographics, baseline bone density or vascular calcification scores were observed between the sevelamer and calcium groups, with the exception of age, (sevelamer/Renagel group 53±12 yrs, calcium group 59±13 yrs, p=0.02).

The subject of assay [4] is hemodialysis patients. Kind of assay: Thoracic spine bone density by computerized tomography densitometry, baseline vs 24 month EBT scan (Extension study). To be noted: two years, FIG. 1. From the text: Prior to the completion and analysis of this protocol, the study was extended for an additional two years. During this extension study, patients would remain on the phosphate binder to which they were originally randomized, sevelamer or calcium acetate/carbonate, and EBT scans would be performed at Month 24 and Month 36, to assess long-term changes in cardiovascular calcification. Forty-five patients in the US and 72 patients in the EU were eligible and consented to participate in the Extension study.
Having met the endpoints of the original study, the Extension study was prematurely discontinued. Only 77 Extension study patients opted to have a final EBT scan performed.
The study's EBT Core Lab evaluated the EBT images of patients who had both a baseline and 24 month scan to assess changes over time in trabecular and cortical bone density. Specifically, thoracic spine bone density was assessed by computerized tomography densitometry (density expressed as Hounsfield units). Trabecular bone density was measured in the core of the lowest vertebral body completely captured by the scanning procedure, while cortical bone density was measured in the axial plate of the same vertebral body. Care was taken to evaluate exactly the same vertebral level in consecutive scans in the same patient. […]

Assay [5] concerns hemodialysis patients. The assay is described as follows: Biochemical marker studies, 52 week randomized study in hemodialysis patients. To be noted: end of the chronic phase of the study. The source says: Protocols 1-7 for use of RenaGel® (Geltex Pharmaceuticals, Inc., Waltham, Mass.) in each of the haemodialysis patient studies are provided in the following references, respectively, the teachings of which are incorporated herein by reference in their entireties.
Chertow, G. M., Burke, S. K., Raggi, P., for the Treat to Goal Working Group, “Sevelamer attenuates the progression of coronary and aortic calcification in hemodialysis patients,” Kidney Int. 62: 245-252 (2002).
Osteocalcin and BSAP are measures of osteoblast function and are indicative of bone formation. […] There were no statistically significant differences between treatment groups in the mean change from Day 0 to Week 52 in c-telopeptides, a collagen fragment which indicates osteoclast function and bone resorption.
The study was a 52 week, randomized, open label, multi-center, parallel study designed to assess the effects of sevelamer compared to calcium acetate/carbonate in enabling hemodialysis patients to reach therapeutic goals of phosphorus <5 mg/dL, calcium <10.5 mg/dL and iPTH in the range of 150-300 pg/mL. Patients also underwent Electron Beam Tomography (EBT) scans at Day 0 and Weeks 26 and 52. These scans were used to assess changes in cardiovascular calcification over time. […]

[6] abbreviates: 12 month treatment period, absolute and percentage change.

Consider calcium acetate/carbonate, for which, in the assay on hemodialysis patients [1] (p=0.0104 between groups), the “median change in aortic calcification by Agatston score” value was determined as 75.05. The “median change in coronary artery calcification by Agatston score” value in the assay with hemodialysis patients [1] (p=0.0398 between groups) is reported as 36.55. Also, the iPTH entry in the assay with hemodialysis patients [2] is “significantly lower”. For the same substance, in the assay on hemodialysis patients [3] (setting [6]), the “change in cortical bone density” value is recorded as “trend to reduced” and the “change in trabecular bone density” value is “significant reduction”. Also, the “magnitude of trabecular bone density loss, mean” value with hemodialysis patients [3] (52 weeks) is −5%. In addition, in the assay on hemodialysis patients [4], the “change in cortical bone density from baseline” value is given as “non-significant decrease” and the “change in trabecular bone density from baseline” value was “significant reduction”. Further, the “mean increase in BSAP (bone-specific alkaline phosphatase)” value with hemodialysis patients [5] (p<0.0001 between groups) is listed as 6.81 U/L. In the assay with hemodialysis patients [5] (p=0.0003 between groups), the “mean increase in osteocalcin” value amounted to 15.80 ng/mL.
